Where “and” joins values, the source holds several entries; their conditions need not be identical. Identical values can stand only once. Toxic doses and inconclusive results are not listed. How the source made its calls: active means survival T/C of 150% or more; inactive means T/C below 125% in these data.
Test system: CD2F1 mice, L1210 leukemia ip, survival T/C
Assay: NCI In Vivo Anticancer Drug Screen. Data for tumor model L1210 Leukemia (intraperitoneal) in CD2F1 (CDF1) mice
Details: higher = longer survival
Method in brief: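 Activity against a transplanted murine tumor was judged by comparing the compound group with a vehicle group. The outcome in the treated animals was divided by that in the controls.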

[1] = endpoint: mean survival time, dose: 100.0 mg/kg/injection, schedule: Q04DX003 (ip), vehicle: saline with Tween-80
[2] = endpoint: mean survival time, dose: 100.0 mg/kg/injection, schedule: Q04DX003 (ip), vehicle: saline
[3] = endpoint: mean survival time, dose: 200.0 mg/kg/injection, schedule: Q04DX003 (ip), vehicle: saline
[4] = endpoint: mean survival time, dose: 100.0 mg/kg/injection, schedule: Q01DX009 (ip), vehicle: saline with Tween-80
[5] = endpoint: mean survival time, dose: 200.0 mg/kg/injection, schedule: Q01DX009 (ip), vehicle: saline with Tween-80
[6] = endpoint: mean survival time, dose: 400.0 mg/kg/injection, schedule: Q01DX009 (ip), vehicle: saline with Tween-80
[7] = endpoint: mean survival time, dose: 400.0 mg/kg/injection, schedule: Q04DX003 (ip), vehicle: saline
[8] = endpoint: mean survival time, dose: 100.0 mg/kg/injection, schedule: Q04DX003 (ip), vehicle: Klucel (hydroxypropylcellulose) (HPC)
[9] = endpoint: mean survival time, dose: 200.0 mg/kg/injection, schedule: Q04DX003 (ip), vehicle: Klucel (hydroxypropylcellulose) (HPC)
[10] = endpoint: mean survival time, dose: 200.0 mg/kg/injection, schedule: Q04DX003 (ip), vehicle: saline with Tween-80
[11] = endpoint: mean survival time, dose: 400.0 mg/kg/injection, schedule: Q04DX003 (ip), vehicle: saline with Tween-80

Measured: T/C

Nc1nc(N)c2nc(CSc3ccc(C(=O)NC(CCC(=O)O)C(=O)O)cc3)cnc2n1 (configuration not stated)
inactive: endpoint: mean survival time, dose: 1.5 mg/kg/injection, schedule: Q01DX009 (ip), vehicle: distilled water + Tween-80 96 % of control | endpoint: mean survival time, dose: 3.0 mg/kg/injection, schedule: Q01DX009 (ip), vehicle: distilled water + Tween-80 86 % of control | endpoint: mean survival time, dose: 6.0 mg/kg/injection, schedule: Q01DX009 (ip), vehicle: distilled water + Tween-80 100 % of control and 101 % of control | endpoint: mean survival time, dose: 12.0 mg/kg/injection, schedule: Q01DX009 (ip), vehicle: distilled water + Tween-80 115 % of control and 110 % of control | endpoint: mean survival time, dose: 24.0 mg/kg/injection, schedule: Q01DX009 (ip), vehicle: distilled water + Tween-80 117 % of control and 120 % of control

O=C1CC(=O)N2C=CC=CC2=N1
inactive: endpoint: mean survival time, dose: 100.0 mg/kg/injection, schedule: Q04DX002 (ip), vehicle: saline 122 % of control | endpoint: mean survival time, dose: 200.0 mg/kg/injection, schedule: Q04DX002 (ip), vehicle: saline 96 % of control | endpoint: mean survival time, dose: 400.0 mg/kg/injection, schedule: Q04DX002 (ip), vehicle: saline 92 % of control

NNS(=O)(=O)c1ccccc1
inactive: endpoint: mean survival time, dose: 25.0 mg/kg/injection, schedule: Q04DX003 (ip), vehicle: saline with Tween-80 97 % of control | endpoint: mean survival time, dose: 50.0 mg/kg/injection, schedule: Q04DX003 (ip), vehicle: saline with Tween-80 97 % of control | [1] 94 % of control

CCN(CC)C(=O)c1cc[n+](Cc2ccc(Cl)cc2)cc1
inactive: [2] 106 % of control | [3] 103 % of control

O=S(=O)(O)c1ccc(Nc2ccccc2)cc1
inactive: [4] 105 % of control | [2] 104 % of control | [5] 97 % of control | [3] 106 % of control | [6] 103 % of control | [7] 100 % of control

CCCCCOc1ccc(Cl)cc1Cl
inactive: endpoint: mean survival time, dose: 100.0 mg/kg/injection, schedule: Q04DX002 (ip), vehicle: saline with Tween-80 86 % of control | endpoint: mean survival time, dose: 200.0 mg/kg/injection, schedule: Q04DX002 (ip), vehicle: saline with Tween-80 101 % of control | endpoint: mean survival time, dose: 400.0 mg/kg/injection, schedule: Q04DX002 (ip), vehicle: saline with Tween-80 109 % of control

CC(C)NCC(O)c1ccc(O)c(O)c1.[Pt].c1ccc([PH+](c2ccccc2)c2ccccc2)cc1.c1ccc([PH+](c2ccccc2)c2ccccc2)cc1
inactive: endpoint: median survival time, dose: 10.0 mg/kg/injection, schedule: Q04DX003 (ip), vehicle: saline with Tween-80 108 % of control | endpoint: median survival time, dose: 20.0 mg/kg/injection, schedule: Q04DX003 (ip), vehicle: saline with Tween-80 105 % of control | endpoint: median survival time, dose: 40.0 mg/kg/injection, schedule: Q04DX003 (ip), vehicle: saline with Tween-80 105 % of control | endpoint: median survival time, dose: 50.0 mg/kg/injection, schedule: Q04DX003 (ip), vehicle: saline with Tween-80 101 % of control | endpoint: median survival time, dose: 80.0 mg/kg/injection, schedule: Q04DX003 (ip), vehicle: saline with Tween-80 102 % of control | endpoint: median survival time, dose: 100.0 mg/kg/injection, schedule: Q04DX003 (ip), vehicle: saline with Tween-80 98 % of control

CC1CCCC2C(=O)OC(=O)C12 (configuration not stated)
inactive: [8] 92 % of control | [9] 98 % of control

O=[N+]([O-])c1cc(P(=O)(O)O)c(Cl)cc1Cl
inactive: endpoint: mean survival time, dose: 50.0 mg/kg/injection, schedule: Q04DX003 (ip), vehicle: saline 101 % of control | [2] 90 % of control | [3] 93 % of control

CC1=CCC2(C)CCC(C(C)C)C2(O)CC1 (configuration not stated)
inactive: [2] 101 % of control | [3] 93 % of control | [7] 102 % of control

Cn1c[n+](C)c2ncncc21
inactive: endpoint: mean survival time, dose: 3.8 mg/kg/injection, schedule: Q01DX005 (ip), vehicle: water 102 % of control | endpoint: mean survival time, dose: 7.5 mg/kg/injection, schedule: Q01DX005 (ip), vehicle: water 102 % of control | endpoint: mean survival time, dose: 15.0 mg/kg/injection, schedule: Q01DX005 (ip), vehicle: water 117 % of control | endpoint: mean survival time, dose: 30.0 mg/kg/injection, schedule: Q01DX005 (ip), vehicle: water 98 % of control | endpoint: mean survival time, dose: 60.0 mg/kg/injection, schedule: Q01DX005 (ip), vehicle: water 95 % of control

NC(N)=NC(N)=Nc1ccc(C(=O)O)c(O)c1
inactive: endpoint: mean survival time, dose: 100.0 mg/kg/injection, schedule: Q01DX009 (ip), vehicle: saline 106 % of control | endpoint: mean survival time, dose: 200.0 mg/kg/injection, schedule: Q01DX009 (ip), vehicle: saline 95 % of control | endpoint: mean survival time, dose: 400.0 mg/kg/injection, schedule: Q01DX009 (ip), vehicle: saline 95 % of control

OC1CC2C3C4C1C1C2C3C41 (configuration not stated)
inactive: [4] 104 % of control | [1] 107 % of control | [5] 95 % of control | [10] 98 % of control | [6] 95 % of control | [11] 97 % of control

OC(Cc1cnc2ccccc2n1)(C(F)(F)F)C(F)(F)F
inactive: [1] 94 % of control | [10] 98 % of control | [11] 103 % of control

CCC(/C=C/C(C)C1CCC2C3CC=C4CC(O)CCC4(C)C3CCC12C)C(C)C (configuration not stated) (tested in a mixture with another compound)
inactive: endpoint: mean survival time, dose: 12.5 mg/kg/injection, schedule: Q01DX001 (ip), vehicle: water 97 % of control | endpoint: mean survival time, dose: 12.5 mg/kg/injection, schedule: Q01DX009 (ip), vehicle: water 100 % of control | endpoint: mean survival time, dose: 25.0 mg/kg/injection, schedule: Q01DX001 (ip), vehicle: water 97 % of control | endpoint: mean survival time, dose: 25.0 mg/kg/injection, schedule: Q01DX009 (ip), vehicle: other 94 % of control | endpoint: mean survival time, dose: 25.0 mg/kg/injection, schedule: Q01DX009 (ip), vehicle: water 103 % of control | endpoint: mean survival time, dose: 50.0 mg/kg/injection, schedule: Q01DX001 (ip), vehicle: water 102 % of control | endpoint: mean survival time, dose: 50.0 mg/kg/injection, schedule: Q01DX009 (ip), vehicle: other 91 % of control | endpoint: mean survival time, dose: 50.0 mg/kg/injection, schedule: Q01DX009 (ip), vehicle: water 96 % of control | [4] 94 % of control | [5] 89 % of control

N/C(=N/O)NO
inactive: endpoint: median survival time, dose: 50.0 mg/kg/injection, schedule: Q01DX005 (ip), vehicle: saline 109 % of control | endpoint: median survival time, dose: 100.0 mg/kg/injection, schedule: Q01DX005 (ip), vehicle: saline 110 % of control and 112 % of control | endpoint: median survival time, dose: 200.0 mg/kg/injection, schedule: Q01DX005 (ip), vehicle: saline 120 % of control and 123 % of control

c1coc(CNc2ncnc3c2ncn3Cc2ccco2)c1
inactive: endpoint: mean survival time, dose: 6.25 mg/kg/injection, schedule: Q01DX005 (ip), vehicle: other 96 % of control | endpoint: mean survival time, dose: 12.5 mg/kg/injection, schedule: Q01DX005 (ip), vehicle: other 90 % of control | endpoint: mean survival time, dose: 25.0 mg/kg/injection, schedule: Q01DX005 (ip), vehicle: other 90 % of control

CCCCOC(=O)C(C)OC(=O)Nc1cccc(Cl)c1 (configuration not stated)
inactive: [1] 100 % of control | [10] 101 % of control | [11] 97 % of control

Nc1cc(OCC(=O)O)c(Cl)cc1Cl
inactive: endpoint: mean survival time, dose: 50.0 mg/kg/injection, schedule: Q01DX009 (ip), vehicle: Klucel (hydroxypropylcellulose) (HPC) 96 % of control | endpoint: mean survival time, dose: 100.0 mg/kg/injection, schedule: Q01DX009 (ip), vehicle: Klucel (hydroxypropylcellulose) (HPC) 89 % of control | endpoint: mean survival time, dose: 200.0 mg/kg/injection, schedule: Q01DX009 (ip), vehicle: Klucel (hydroxypropylcellulose) (HPC) 93 % of control

CCCCCCCCCCCCCCCCC(CCC)C1CCCCC1 (configuration not stated)
inactive: endpoint: mean survival time, dose: 100.0 mg/kg/injection, schedule: Q01DX001 (ip), vehicle: saline with Tween-80 92 % of control | endpoint: mean survival time, dose: 200.0 mg/kg/injection, schedule: Q01DX001 (ip), vehicle: saline with Tween-80 104 % of control | endpoint: mean survival time, dose: 400.0 mg/kg/injection, schedule: Q01DX001 (ip), vehicle: saline with Tween-80 101 % of control

C1=C\CCCCCCCC/1
inactive: [1] 100 % of control | [11] 100 % of control

COc1ccccc1OCCN1Cc2ccccc2C1
inactive: endpoint: mean survival time, dose: 50.0 mg/kg/injection, schedule: Q01DX009 (ip), vehicle: saline with Tween-80 94 % of control | [4] 100 % of control | [5] 97 % of control

CCOC(=O)C(CC(=O)O)=C1c2ccccc2-c2ccccc21
inactive: endpoint: mean survival time, dose: 25.0 mg/kg/injection, schedule: Q04DX003 (ip), vehicle: Klucel (hydroxypropylcellulose) (HPC) 96 % of control | endpoint: mean survival time, dose: 50.0 mg/kg/injection, schedule: Q04DX003 (ip), vehicle: Klucel (hydroxypropylcellulose) (HPC) 93 % of control | [8] 87 % of control | [9] 93 % of control

From PubChem BioAssay AID256 (DTP/NCI, 2004)
